According to patent US10457707B2, “Substituted urea depsipeptide analogs as activators of the CLPP endopeptidase” (priority 2015, dated 2019):
≈ marks a conversion by molar mass, not a printed value. *1 amine or outer side, *2 acyl side, *3 side chain or, on linkers, in order; H or OH if unused. Where a SMILES comes first, the peptide text is derived from it. Bridges are numbered along the chain shown (N, C = ends). [ ]: non-standard residue; d: D form. The star is where a group is joined. X15 = O=C([C@@H]1C[C@@H](OP(=O)(O)O)CN1[*:1])[*:2]; Phe(3,5-F2) = N[C@@H](Cc1cc(F)cc(F)c1)C(=O)O; Morpholine(3S-CO) = O=C(O)[C@@H]1COCCN1; Pro(4S-Me) = C[C@@H]1CN[C@H](C(=O)O)C1; Pro(4R-Me) = C[C@H]1CN[C@H](C(=O)O)C1; NH(3,4-Me2-phenyl) = Cc1ccc(N*)cc1C; NH(4-Me-phenyl) = Cc1ccc(N*)cc1; aThr = C[C@H](O)[C@H](N)C(=O)O; Pip = O=C(O)[C@@H]1CCCCN1; NMeA = CN[C@@H](C)C(=O)O; CO = O=C([*:1])[*:2]

Legend:
physchem = details: 22 °C, aqueous buffer, kinetic from dmso stock
[1] = test system: Streptococcus pyogenes, ATCC 700294; assay: Minimal inhibitory concentration assay (microbroth dilution); format: cell-based; details: Streptococcus pyogenes, ATCC700294, read-out: Minimal Inhibitory Concentrations S. pyogenes ATCC 700294
Outline: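 Plates with two-fold compound dilution series in broth were incubated overnight, aerobically, at 37° C, following CLSI microdilution guidance.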

E. coli K12ΔtolC = assay: as above; format: cell-based
[2] = test system: Vero (kidney epithelial cells; ATCC CCL-81); assay: Cytotoxicity assay (CellTiter-Glo cell viability, 72 hours); format: cell-based; details: Vero cells, 72 hours, growth inhibition; read-out: Cytotoxicity IC50
Outline: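 Viability measured by CellTiter-Glo luminescence after 72-hour compound exposure (serial dilutions, DMSO control) of Vero monolayers seeded at 5000 cells/well in 10% FBS DMEM. IC50 values are the range of two biologically independent experiments, each run in duplicate.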

[3] = test system: Bacillus subtilis, ATCC 23857; assay: Minimal inhibitory concentration assay (microbroth dilution); format: cell-based; details: Bacillus subtilis, ATCC23857, read-out: Minimal Inhibitory Concentrations B. subtilis ATCC 23857
Outline: (§1)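 Visual read-out; MIC is the lowest drug concentration with no bacterial growth after overnight aerobic incubation at 37 °C. Compound was tested in two-fold dilutions starting at 200 μM final, with an inoculum of approximately 10^5 cfu/mL, following CLSI microdilution guidance.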

[4] = test system: Staphylococcus aureus, ATCC 29213; assay: as above; format: cell-based; details: ATCC29213, read-out: Minimal Inhibitory Concentrations S. aureus ATCC 29213
Outline: as §1

[5] = test system: Enterococcus faecalis, ATCC 33186; assay: as above; format: cell-based; details: Enterococcus faecalis, ATCC33186, read-out: Minimal Inhibitory Concentrations E. faecalis ATCC 33186
Outline: as §1

[6] = test system: Staphylococcus aureus, NRS70; assay: as above; format: cell-based; details: Staphylococcus aureus, NRS70, read-out: Minimal Inhibitory Concentrations S. aureus NRS70
Outline: as §1

[7] = test system: Streptococcus pneumoniae, DAW27; assay: as above; format: cell-based; details: DAW27, read-out: Minimal Inhibitory Concentrations S. pneumoniae DAW27
Outline: as §1

Cc1ccc(NC(=O)N[C@@H](Cc2cc(F)cc(F)c2)C(=O)N[C@@H]2C(=O)N3C[C@H](OP(=O)(O)O)C[C@H]3C(=O)N3CCOC[C@H]3C(=O)N[C@@H](C)C(=O)N3C[C@H](C)C[C@H]3C(=O)O[C@H]2C)cc1C [Compound 189, (6aS,8R,12S,13S,15aS,17R,21S,23aS)-12-((S)-3-(3,5-difluorophenyl)-2-(3-(3,4-dimethylphenyl)ureido)propanamido)-13,17,21-trimethyl-6,11,15,20,23-pentaoxooctadecahydro-6H,11H,15H-[1,4]oxazino[3,4-i]dipyrrolo[2,1-c:2′,1′-L][1]oxa[4,7,10,13]tetraazacyclohexadecin-8-yl dihydrogen phosphate] ({NH(3,4-Me2-phenyl)-CO}-[Phe(3,5-F2)][aThr][X15][Morpholine(3S-CO)]A[Pro(4R-Me)]; ester 2-C)
solubility (physchem): 117 ± 3.2 µM

Cc1ccc(NC(=O)N[C@@H](Cc2cc(F)cc(F)c2)C(=O)N[C@@H]2C(=O)N3C[C@H](OP(=O)(O)O)C[C@H]3C(=O)N3CCCC[C@H]3C(=O)N[C@@H](C)C(=O)N3C[C@H](C)C[C@H]3C(=O)O[C@H]2C)cc1 [Compound 190, (2R,6S,8aS,14aS,16R,20S,21S,23aS)-20-((S)-3-(3,5-difluorophenyl)-2-(3-(p-tolyl)ureido)propanamido)-2,6,21-trimethyl-5,8,14,19,23-pentaoxooctadecahydro-1H,5H,14H,19H-pyrido[2,1-i]dipyrrolo[2,1-c:2′,1′-l][1]oxa[4,7,10,13]tetraazacyclohexadecin-16-yl dihydrogen phosphate] ({NH(4-Me-phenyl)-CO}-[Phe(3,5-F2)][aThr][X15][Pip]A[Pro(4R-Me)]; ester 2-C)
solubility (physchem): 113 ± 3.9 µM

C[C@@H]1C[C@H]2C(=O)OC[C@H](NC(=O)[C@H](Cc3ccccc3)NC(=O)Nc3cccc(Cl)c3)C(=O)N3CCC[C@H]3C(=O)N3CCCC[C@H]3C(=O)N[C@@H](C)C(=O)N2C1 [Compound 9, (S)-2-(3-(3-chlorophenyl)ureido)-N-((2R,6S,8aS,14aS,20S,23aS)-2,6-dimethyl-5,8,14,19,23-pentaoxooctadecahydro-1H,5H,14H,19H-pyrido[2,1-i]dipyrrolo[2,1-c:2′,1′-l][1]oxa[4,7,10,13]tetraazacyclohexadecin-20-yl)-3-phenylpropanamide]
MIC [1]: 1.56 µM (≈ 1.21 µg/mL)
Minimal Inhibitory Concentrations E. coli K12ΔtolC (E. coli K12ΔtolC): 25 µM
IC50 [2]: 89 ± 5 µM
MIC [3]: 1.56 µM (≈ 1.21 µg/mL)
MIC [4]: 3.13 µM (≈ 2.44 µg/mL)
MIC [5]: 1.56 µM (≈ 1.21 µg/mL)
MIC [6]: 1.56 µM (≈ 1.21 µg/mL)
MIC [7]: 0.78 µM (≈ 0.607 µg/mL)

COc1ccc(NC(=O)N[C@@H](Cc2ccccc2)C(=O)N[C@H]2COC(=O)[C@@H]3C[C@@H](C)CN3C(=O)[C@H](C)NC(=O)[C@@H]3CCCCN3C(=O)[C@@H]3CCCN3C2=O)cc1 [Compound 6, (S)—N-((2R,6S,8aS,14aS,20S,23aS)-2,6-dimethyl-5,8,14,19,23-pentaoxooctadecahydro-1H,5H,14H,19H-pyrido[2,1-i]dipyrrolo[2,1-c:2′,1′-l][1]oxa[4,7,10,13]tetraazacyclohexadecin-20-yl)-2-(3-(4-Methoxyphenyl)ureido)-3-phenylpropanamide]
MIC [1]: 0.39 µM (≈ 0.302 µg/mL)
Minimal Inhibitory Concentrations E. coli K12ΔtolC (E. coli K12ΔtolC): 50 µM
IC50 [2]: > 100 µM
MIC [3]: 1.56 µM (≈ 1.21 µg/mL)
MIC [4]: 3.13 µM (≈ 2.42 µg/mL)
MIC [5]: 0.78 µM (≈ 0.604 µg/mL)
MIC [6]: 3.13 µM (≈ 2.42 µg/mL)
MIC [7]: 0.2 µM (≈ 0.155 µg/mL)

C[C@@H]1C[C@H]2C(=O)OC[C@H](NC(=O)[C@H](Cc3ccccc3)NC(=O)Nc3ccccc3)C(=O)N3CCC[C@H]3C(=O)N3CCCC[C@H]3C(=O)N[C@@H](C)C(=O)N2C1 [Compound 1, (S)—N-((2R,6S,8aS,14aS,20S,23aS)-2,6-dimethyl-5,8,14,19,23-pentaoxooctadecahydro-1H,5H,14H,19H-pyrido[2,1-i]dipyrrolo[2,1-c:2′,1′-l][1]oxa[4,7,10,13]tetraazacyclohexadecin-20-yl)-3-phenyl-2-(3-phenylureido)propanamide]
MIC [1]: 1.56 µM (≈ 1.16 µg/mL)
Minimal Inhibitory Concentrations E. coli K12ΔtolC (E. coli K12ΔtolC): 200 µM
IC50 [2]: > 100 µM
MIC [3]: 1.56 µM (≈ 1.16 µg/mL)
MIC [4]: 6.25 µM (≈ 4.65 µg/mL)
MIC [5]: 3.13 µM (≈ 2.33 µg/mL)
MIC [6]: 6.25 µM (≈ 4.65 µg/mL)
MIC [7]: 0.78 µM (≈ 0.58 µg/mL)

Cc1ccc(NC(=O)N[C@@H](Cc2cc(F)cc(F)c2)C(=O)N[C@@H]2C(=O)N3C[C@H](OP(=O)(O)O)C[C@H]3C(=O)N(C)[C@@H](C)C(=O)N[C@@H](C)C(=O)N3C[C@@H](C)C[C@H]3C(=O)O[C@H]2C)cc1 [Compound 187, (2S,6S,9S,11aS,13R,17S,18S,20aS)-17-((S)-3-(3,5-difluorophenyl)-2-(3-(p-tolyl)ureido)propanamido)-2,6,9,10,18-pentamethyl-5,8,11,16,20-pentaoxohexadecahydro-1H,5H,16H-dipyrrolo[2,1-c:2′,1′-l][1]oxa[4,7,10,13]tetraazacyclohexadecin-13-yl dihydrogen phosphate] ({NH(4-Me-phenyl)-CO}-[Phe(3,5-F2)][aThr][X15][NMeA]A[Pro(4S-Me)]; ester 2-C)
solubility (physchem): 118 ± 1.4 µM

C[C@@H]1C[C@H]2C(=O)OC[C@H](NC(=O)[C@H](Cc3ccccc3)NC(=O)Nc3ccccc3Cl)C(=O)N3CCC[C@H]3C(=O)N3CCCC[C@H]3C(=O)N[C@@H](C)C(=O)N2C1 [Compound 7, (S)-2-(3-(2-chlorophenyl)ureido)-N-((2R,6S,8aS,14aS,20S,23aS)-2,6-dimethyl-5,8,14,19,23-pentaoxooctadecahydro-1H,5H,14H,19H-pyrido[2,1-i]dipyrrolo[2,1-c:2′,1′-l][1]oxa[4,7,10,13]tetraazacyclohexadecin-20-yl)-3-phenylpropanamide]
MIC [1]: 3.13 µM (≈ 2.44 µg/mL)
Minimal Inhibitory Concentrations E. coli K12ΔtolC (E. coli K12ΔtolC): 200 µM
IC50 [2]: > 100 µM
MIC [3]: 6.25 µM (≈ 4.86 µg/mL)
MIC [4]: 12.5 µM (≈ 9.73 µg/mL)
MIC [5]: 3.13 µM (≈ 2.44 µg/mL)
MIC [6]: 12.5 µM (≈ 9.73 µg/mL)
MIC [7]: 0.78 µM (≈ 0.607 µg/mL)

C[C@@H]1C[C@H]2C(=O)OC[C@H](NC(=O)[C@H](Cc3ccccc3)NC(=O)Nc3ccc(Cl)cc3)C(=O)N3CCC[C@H]3C(=O)N3CCCC[C@H]3C(=O)N[C@@H](C)C(=O)N2C1 [Compound 3, (S)-2-(3-(4-chlorophenyl)ureido)-N-((2R,6S,8aS,14aS,20S,23aS)-2,6-dimethyl-5,8,14,19,23-pentaoxooctadecahydro-1H,5H,14H,19H-pyrido[2,1-i]dipyrrolo[2,1-c:2′,1′-l][1]oxa[4,7,10,13]tetraazacyclohexadecin-20-yl)-3-phenylpropanamide]
MIC [1]: 0.39 µM (≈ 0.304 µg/mL)
Minimal Inhibitory Concentrations E. coli K12ΔtolC (E. coli K12ΔtolC): 25 µM
IC50 [2]: 63 ± 5.8 µM
MIC [3]: 0.78 µM (≈ 0.607 µg/mL)
MIC [4]: 1.56 µM (≈ 1.21 µg/mL)
MIC [5]: 0.2 µM (≈ 0.156 µg/mL)
MIC [6]: 0.78 µM (≈ 0.607 µg/mL)
MIC [7]: 0.2 µM (≈ 0.156 µg/mL)
